Read-outs that look alike come from different tables or passages of the source. Square brackets hold non-standard residues; d marks the D form. Peptide text beside a SMILES is read from it. dPhe(4-Cl) = N[C@H](Cc1ccc(Cl)cc1)C(=O)O; d2Nal = N[C@H](Cc1ccc2ccccc2c1)C(=O)O; dCit = NC(=O)NCCC[C@@H](N)C(=O)O; d3Pal = N[C@H](Cc1cccnc1)C(=O)O
Tests used:
[1] = test system: cancer cell lines classified IM, MSL, M; assay: PRISM screen compound sensitivity correlated with IM, MSL and M subtype of cell lines (101 gene signature); format: cell-based; settings: for TNBCType train: 101 gene signature
[2] = test system: cancer cell lines, DetermaIO classes; assay: Association of PRISM compound sensitivity with DetermaIO (DTIO) cell line classes; format: cell-based
[3] = correlation of PRISM compound sensitivity with IM subtype correlation, test cell set
[4] = correlation of PRISM compound sensitivity with M subtype correlation, test cell set
[5] = correlation of PRISM compound sensitivity with MSL subtype correlation, test cell set
[6] = correlation of PRISM compound sensitivity with DTIO; test cell set
[7] = correlation of PRISM compound sensitivity with DTIO; training cell set
[8] = correlation of PRISM compound sensitivity with IM subtype correlation, test cell set (188 cell lines)
[9] = correlation of PRISM compound sensitivity with M subtype correlation, test cell set (188 cell lines)
[10] = correlation of PRISM compound sensitivity with MSL subtype correlation, test cell set (188 cell lines)
[11] = correlation of compound sensitivity with DetermaIO (DTIO), test set
[12] = correlation of compound sensitivity with DetermaIO (DTIO), training set
[13] = correlation of PRISM compound sensitivity with DTIO (DetermaIO); test cell set (188 cell lines)
[14] = correlation of PRISM compound sensitivity with DTIO (DetermaIO); training cell set (371 cell lines)
[15] = subtype (IM, MSL or M) with which compound sensitivity is negatively correlated, training cell set (371 cell lines)
[16] = subtype (IM, MSL or M) assigned to the compound by negative correlation of PRISM sensitivity with subtype, training cell set (371 cell lines)

Row | Structure (SMILES) | DTIO Corr test [2, 6] | DTIO Corr train [2, 7] | IM Corr test [1, 8] | M Corr test [1, 9] | MSL Corr test [1, 10] | DTIO Corr test [2, 13] | DTIO Corr train [2, 14] | other results
1 | CN(C)CCN1C(=O)c2cccc3cc(NC(N)=O)cc(c23)C1=O [UNBS-5162] | 0.09148 | 0.09844 |  |  |  |  |  | IM Corr test [1, 3]: 0.1623; M Corr test [1, 4]: −0.2029; MSL Corr test [1, 5]: −0.03433; DTIO Corr test ([2]; correlation of compound sensitivity with DetermaIO (DTIO); test set): 0.09148; DTIO Corr train ([2]; correlation of compound sensitivity with DetermaIO (DTIO); training set): 0.09844
2 | COc1cc2c(NC3CCN(CC4CCCCC4)CC3)nc(N3CCCN(C(C)C)CC3)nc2cc1OCCCN1CCCCC1 [UNC0631] | 0.163 | 0.1055 | 0.2168 | −0.3256 | −0.09072 |  |  | DTIO Corr test [2, 11]: 0.163; DTIO Corr train [2, 12]: 0.1055
3 | COc1cc2c(NC3CCN(C(C)C)CC3)nc(C3CCCCC3)nc2cc1OCCCN1CCCC1 [UNC0638] |  |  | −0.1264 | 0.1332 | 0.1697 | −0.08839 | −0.07586 | 
4 | COc1ccc(CN2C(=O)C(=O)c3cc(OC(F)(F)F)ccc32)cc1 [VU0238429] | −0.02333 | −0.07773 |  |  |  |  |  | IM Corr test [1, 3]: 0.04415; M Corr test [1, 4]: −0.1868; MSL Corr test [1, 5]: −0.1511
5 | Cc1cc(C)c(N(Cc2ccccc2)S(=O)(=O)c2ccc(OCCNC(=O)c3cc4ccccc4o3)cc2)c(C(=O)NO)c1 [WAY-170523] | 0.02955 | 0.0516 |  |  |  |  |  | IM Corr test [1, 3]: −0.0044; M Corr test [1, 4]: −0.01887; MSL Corr test [1, 5]: −0.04718; TNBCType train ([1]; subtype (IM, MSL or M) with which PRISM compound sensitivity is negatively correlated, training cell set): MSL
6 | COc1cc2ncnc(Nc3ccc(O)c(Br)c3)c2cc1OC [WHI-P154] | −0.06543 | −0.1245 | −0.227 | 0.2466 | 0.2152 |  |  | 
7 | C=CC(=O)Nc1cccc(Sc2nc(Nc3ccc(N4CCN(C)CC4)cc3)ncc2Cl)c1 [WZ8040] |  |  | −0.07504 | 0.1805 | 0.2895 | 0.0423 | −0.1387 | 
8 | C[C@@H](N)c1ccc(C(=O)Nc2ccnc3[nH]ccc23)cc1 [Y-39983] |  |  | 0.05616 | −0.1022 | −0.1761 | −0.02374 | −0.00611 | 
9 | Cc1cccc(NC(=O)N[C@@H]2N=C(c3ccccc3)c3ccccc3N(CC(=O)c3ccccc3C)C2=O)c1 [YM022] | −0.00858 | 0.03884 | −0.00497 | −0.05702 | −0.08788 |  |  | 
10 | C[C@@H]1CN(Cc2ccc(F)cc2)CCN1C(=O)COc1ccc(Cl)cc1NC(N)=O.Cl [ZK811752] |  |  | 0.1095 | −0.08132 | −0.00448 | 0.04281 | 0.09953 | 
11 | CC1(C)[C@@H](O[C@H]2O[C@H](C(=O)O)[C@@H](O)[C@H](O)[C@H]2O[C@@H]2O[C@H](C(=O)O)[C@@H](O)[C@H](O)[C@H]2O)CC[C@]2(C)[C@H]3C(=O)C=C4[C@@H]5C[C@@](C)(C(=O)O)CC[C@]5(C)CC[C@@]4(C)[C@]3(C)CC[C@@H]12 [ammonium-glycyrrhizinate] | −0.07896 | −0.06692 | −0.02605 | 0.0501 | 0.0971 |  |  | 
12 | CC(=O)OC[C@]12CCC(C)=C[C@H]1O[C@@H]1[C@H](O)[C@@H](OC(C)=O)[C@@]2(C)[C@]12CO2 [anguidine] |  |  |  |  |  |  |  | IM Corr test [1]: −0.1066; M Corr test [1]: 0.09713; MSL Corr test [1]: 0.2083; DTIO Corr test [2]: −0.124; DTIO Corr train [2]: −0.1638
13 | O=C1C(=O)N(Cc2ccc(Cl)c(Cl)c2)c2ccccc21 [apoptosis-activator-II] | 0.07557 | 0.02708 | 0.1037 | −0.1455 | −0.1886 |  |  | TNBCType train [1, 15]: MSL
14 | COc1ccc(C2CNC(=O)NC2)cc1O[C@H]1C[C@@H]2CC[C@H]1C2 [atizoram] |  |  | −0.0276 | 0.01206 | −0.09365 | 0.000749 | −0.04268 | TNBCType train [1, 16]: MSL
15 | Cc1occc(=O)c1[O-].Cc1occc(=O)c1[O-].[O]=[V+2] [bis(maltolato)oxo-vanadium(IV)] | 0.09031 | 0.1485 | 0.04745 | −0.1743 | −0.04621 |  |  | DTIO Corr test [2, 11]: 0.09031; DTIO Corr train [2, 12]: 0.1485
16 | CCCC[C@H](NC(C)=O)C(=O)N[C@H]1CC(=O)NCCCC[C@@H](C(=O)O)NC(=O)[C@H](Cc2c[nH]c3ccccc23)NC(=O)[C@H](CCCN=C(N)N)NC(=O)[C@@H](Cc2ccccc2)NC(=O)[C@H](Cc2cnc[nH]2)NC1=O [bremelanotide] | −0.06366 | −0.07952 | −0.04735 | 0.07264 | −0.04913 |  |  | 
17 | CCCCC1OC(=O)c2ccccc21 (centres unmarked) [butylphthalide] | −0.1082 | 0.01178 | −0.03693 | −0.03289 | −0.02003 |  |  | TNBCType train [1, 15]: MSL
18 | COc1ccc(Nc2nccc(NCCO)n2)cc1 [cardiogenol-c] |  |  | −0.05174 | −0.01984 | −0.00925 |  |  | TNBCType train ([1]; subtype (IM, MSL or M) the PRISM compound sensitivity is associated with, training cell set (371 cell lines)): MSL; DTIO Corr test ([2]; correlation of PRISM compound sensitivity with DTIO; test cell set (188 cell lines)): −0.07629; DTIO Corr train ([2]; correlation of PRISM compound sensitivity with DTIO; training cell set (371 cell lines)): 0.01043
19 | CO/N=C(\C(=O)N[C@@H]1C(=O)N2C(C(=O)OCOC(=O)C(C)(C)C)=C(C)CS[C@H]12)c1csc(N)n1 [cefetamet-pivoxil] | −0.06679 | −0.1217 |  |  |  |  |  | IM Corr test [1, 3]: −0.01246; M Corr test [1, 4]: 0.001642; MSL Corr test [1, 5]: −0.041
20 | CC(=O)N[C@H](Cc1ccc2ccccc2c1)C(=O)N[C@H](Cc1ccc(Cl)cc1)C(=O)N[C@H](Cc1cccnc1)C(=O)N[C@@H](CO)C(=O)N[C@@H](Cc1ccc(O)cc1)C(=O)N[C@H](CCCNC(N)=O)C(=O)N[C@@H](CC(C)C)C(=O)N[C@@H](CCCNC(=N)N)C(=O)N1CCC[C@H]1C(=O)N[C@H](C)C(N)=O [cetrorelix] (Ac-[d2Nal][dPhe(4-Cl)][d3Pal]SY[dCit]LRP[dA]-NH2) |  |  | −0.1828 | −0.05533 | −0.07051 | −0.1344 | 0.03723 | TNBCType train [1, 16]: MSL
21 | COc1cc(-c2ccc(N=Nc3ccc4c(S(=O)(=O)[O-])cc(S(=O)(=O)[O-])c(N)c4c3O)c(OC)c2)ccc1N=Nc1ccc2c(S(=O)(=O)[O-])cc(S(=O)(=O)[O-])c(N)c2c1O.[Na+].[Na+].[Na+].[Na+] [chicago-sky-blue-6b] |  |  | −0.1701 | 0.1599 | 0.184 | −0.07521 | −0.1611 | 
22 | CCS(=O)(=O)N(C)[C@H]1c2cc(C#N)ccc2OC(C)(C)[C@@H]1O [chromanol-293B-(−)-[3R,4S]] | −0.09957 | −0.08029 |  |  |  |  |  | IM Corr test [1, 3]: −0.09685; M Corr test [1, 4]: 0.08774; MSL Corr test [1, 5]: 0.1021
